Source: patent US10730843B1, “Quinoxalines useful as cytoprotective agents” (priority 2019, dated 2020)

Tests used:
SERCA = target: T1, SERCA (Homo sapiens, UniProt P16615); experiment: Ca-ATPase assay (NADH-linked, enzyme-coupled ATPase assay); format: biochemical; conditions: microsomal preparations from HEK 293 cells; Vmax from fit of ATPase calcium-dependence to the Hill function, relative to controls
T1 construct: microsomal preparations from HEK 293 cells; endogenous in cells; host or cells: HEK 293 cells (microsomal preparation)
T1 sequence (P16615 whole entry): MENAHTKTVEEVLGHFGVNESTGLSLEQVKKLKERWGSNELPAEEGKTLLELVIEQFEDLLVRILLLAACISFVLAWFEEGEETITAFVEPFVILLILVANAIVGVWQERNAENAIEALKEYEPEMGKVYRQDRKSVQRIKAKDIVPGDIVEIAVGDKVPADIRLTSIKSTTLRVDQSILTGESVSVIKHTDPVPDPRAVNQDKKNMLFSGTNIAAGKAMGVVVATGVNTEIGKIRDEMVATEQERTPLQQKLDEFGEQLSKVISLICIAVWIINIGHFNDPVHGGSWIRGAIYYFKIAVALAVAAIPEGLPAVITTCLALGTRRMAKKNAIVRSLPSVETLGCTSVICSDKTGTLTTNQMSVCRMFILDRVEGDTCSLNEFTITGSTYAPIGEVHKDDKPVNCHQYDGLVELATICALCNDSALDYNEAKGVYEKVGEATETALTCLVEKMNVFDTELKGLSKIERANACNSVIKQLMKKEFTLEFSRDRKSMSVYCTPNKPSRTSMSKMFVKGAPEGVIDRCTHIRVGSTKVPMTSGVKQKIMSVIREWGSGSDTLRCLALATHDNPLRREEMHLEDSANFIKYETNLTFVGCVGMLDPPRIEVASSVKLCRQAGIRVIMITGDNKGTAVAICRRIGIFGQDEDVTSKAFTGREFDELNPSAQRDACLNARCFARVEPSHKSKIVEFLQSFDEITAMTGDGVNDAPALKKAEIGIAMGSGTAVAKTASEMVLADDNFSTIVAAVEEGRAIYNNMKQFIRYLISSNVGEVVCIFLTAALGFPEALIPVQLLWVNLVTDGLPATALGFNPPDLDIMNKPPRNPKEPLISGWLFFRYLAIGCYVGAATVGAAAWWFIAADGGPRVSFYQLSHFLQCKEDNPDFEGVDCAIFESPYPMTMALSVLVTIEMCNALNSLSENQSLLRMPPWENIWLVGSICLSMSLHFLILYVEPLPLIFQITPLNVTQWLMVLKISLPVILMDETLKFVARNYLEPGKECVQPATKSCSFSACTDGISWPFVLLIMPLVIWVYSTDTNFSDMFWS
Experimental: A Ca-ATPase assay was performed using microsomal preparations from HEK 293 cells at a series of calcium concentrations corresponding to the physiological range, relative to controls. The ATP hydrolysis rate was measured over a range of calcium concentrations in the presence of test compounds using an NADH-linked, enzyme-coupled ATPase assay adapted for 96-well microplates, with Vmax determined by fitting the ATPase calcium-dependence to the Hill function. Each well contained 2 μg or 7 μg of SR vesicles (optimized for skeletal or cardiac SR, respectively), 50 mM MOPS (pH 7.0), 100 mM KCl, 5 mM MgCl2, 1 mM EGTA, 0.2 mM NADH, 1 mM phosphoenol pyruvate, 5 IU pyruvate kinase, 5 IU lactate dehydrogenase, and 3.5 μg/mL A23187 (a calcium ionophore). CaCl2 was added to set free [Ca^2+] to the specific values. The assay was started upon addition of ATP at a final concentration of 5 mM, and read in a SpectraMax Plus microplate spectrophotometer. The results are summarized in Table 4, where A represents an increase in SERCA Vmax greater than or equal to 50% and B represents a value greater than 10% and less than 50%.

Human SH-SY5Y cells = experiment: Cell rescue assay: protection against ß-amyloid-induced cell toxicity; format: cell-based; conditions: 96 h, 7.5 uM compound, AB1-42 at 10 uM, 4 days, % cell rescue, read-out: Cell Survival %
Experimental: Protection against ß-amyloid-induced cell toxicity. Chonpathompikunlert et al. Eu. J. Pharmacol. 2011, 650, 544-549. Human SH-SY5Y cells are suspended in media containing 2% FBS and 2× Gentamicin. Transfer 100 ul/well culture to 96-well plate (20,000 cells/well; passage #5) and incubate overnight. Prepare compound samples at 30 uM. Add 50 ul of the samples to the cells [[…]] and incubate 3 hours. Make stock of 40 uM AB1-42 peptide in assay media. Transfer 50 ul/well to cells/compounds in assay plate. The final assay volume is 200 ul/well, containing 2% FBS, 2× Gentamicin, 7.5 uM compound and AB1-42 at 10 uM. Incubate for 4 days then add 20 ul of Promega Substrate Cell Titer 96 Aqueous One Solution Reagent to each well. Incubate 37° C. and read OD at 490 nm. The results are summarized in Table 3, where A represents a value equal to or greater than 50% cell rescue, B represents a value greater than 20% and less than 50% cell rescue, and C represents a value greater than 10% and less than or equal to 20% cell rescue.

CSM14.1 neuronal cells = experiment: Cell survival assay (thapsigargin-induced cell death, CELLTITER-GLO); format: cell-based; conditions: compound 2 hrs before about 15 μM thapsigargin, overnight (about 16 to 24 hrs), luminescence
Experimental: CSM14.1 neuronal cells were maintained in Complete Medium at 32° C.; wherein the Complete Medium contained Dulbecco's modified eagle medium (DMEM) with 10% fetal bovine serum (FSB), 1% L-glutamine, 100 IU/mL penicillin, and 100 μg/mL streptomycin. The cells were recovered from cultures by trypsinization and then seeded in 384 well plates (Greiner #781098) at a concentration of 1,000 cells/well in 20 μL of DMEM Assay Medium, wherein the DMEM Assay Medium contained 2% FBS, 100 IU/mL penicillin, and 100 μg/mL streptomycin. Seeding was performed using a MultiDrop Combi reagent broadcaster. The plates were incubated overnight at 32° C. A test compound was prepared by 2-fold serial dilution in 100% DMSO using a BIOMEK® 2000 liquid handler (Beckman Coulter). A dose-response curve containing 10 concentrations of the test compound was obtained. Using a BIOMEK® FX liquid handler (Beckman Coulter), 2.5 μL of the test compound was transferred from the 100% DMSO serial dilution plate to an intermediate plate containing 47.5 μL of DMEM Assay Medium containing 2% FBS, 100 IU/mL penicillin, and 100 μg/mL streptomycin and mixed. To reduce or eliminate the interference from the compound's precipitation, 6 μL of the diluted compound was immediately transferred to the assay plate to achieve a high compound concentration of 100 μM in 99% DMEM Assay Medium and 1% DMSO. After the assay plates were incubated for 2 hrs, 4 μL of 112.5 μM thapsigargin (TG) (DMSO stock diluted into Assay TC Medium) was dispensed into each testing well with a MultiDrop Combi reagent broadcaster for a final concentration of about 15 μM TG. The tissue culture media (4 μL) containing vehicle only was transferred manually to each control cell using a 16 channel electronic pipette. After the plates were incubated overnight (about 16 to 24 hrs), CELLTITER-GLO® (Promega) (16 μL) was added to all wells and luminescence was measured. High luminescence indicates cell survival. The biological results are summarized in Table 1 where A represents a cell viability EC50 less than or equal to 1 μM, B represents a value greater than 1 μM and less than 10 μM, and C represents a value equal to or greather than 10 μM and less than 20 μM.

[1] = test system: Human embryonic kidney (HEK293) cells; mouse neuroblastoma (N2a) cells; experiment: Cell rescue assay: protection against thapsigargin (TG)-induced cell-death (ALAMARBLUE); format: cell-based; conditions: compound at 20 μM, 2 hrs before thapsigargin (15 μM for HEK293 cells, 1 μM for N2a cells), 24 hrs; viability as % RFU compared to control; cell line not given; read-out: Cell Survival %
Experimental: Protection against Thapsigargin (TG)-induced Cell-death. Human embryonic kidney (HEK293) cells were grown in Dulbecco's Modified Eagle's Medium (DMEM) with 10% FBS and 1% antibiotic antimycotic solution (ABAM). Mouse neuroblastoma (N2a) cells were grown in 1:1 DMEM:OPTI-MEM® with 5% FBS and 1% ABAM. All cells were grown in 10% CO2 in a humidified environment of the incubator. Cells grown in 96-well plates were exposed to a test compound (20 μM) for 2 hrs before addition of thapsigargin (15 μM for HEK293 cells and 1 μM for N2a cells) to induce ER stress. After incubation in cell-culture incubator for 24 hrs, ALAMARBLUE® regent (10% v/v) was added to the wells. Fluorescence reading was taken 2 hrs after the addition of the ALAMARBLUE® regent. Cell-viability was calculated as a percentage of relative fluorescence unit (RFU) compared to control. […] The biological results are summarized in Table 2, where each compound was tested at 20 μM and where A represents a viability greater than or equal to 50%, B represents a viability greather than 20% and less than 50%, and C represents a value from 10% to 20%.

Ob/ob mice = experiment: Effect of a SERCA agonist on the level of blood glucose; format: in vivo; conditions: Mus musculus, ip, 96 h, 50 mg/kg i.p. once a day for 5 days, fasting glucose at baseline and 4 days after administration, read-out: Glucose level reduction
Experimental: Ob/ob mice (10 weeks old, n=7) were intraperitoneally (i.p.) injected with 100 μL of a solution containing 0 (vehicle) or 50 mg/kg of a test compound once a day for a total of 5 days. Fasting glucose was measured at baseline and 4 days after the administration of the test compound. Glucose levels were measured in blood samples drawn from the tail vein using a handheld glucose sensor. Compound effects on blood glucose are shown in Table 5 where A represents a 10-20% reduction in blood glucose, B represents a 21-30% reduction in blood glucose, and C represents a greather than 30% reduction in blood glucose levels.

| SMILES | SERCA Vmax Increase (SERCA) | viability at 7.5 µM (Human SH-SY5Y cells) | EC50 (CSM14.1 neuronal cells) | viability at 20 µM [1] | inhibition in vivo at 50 mg/kg (Ob/ob mice) |
| --- | --- | --- | --- | --- | --- |
| Cc1ccc(C(=O)Nc2cccc3nccnc23)s1 [A4, 5-Methyl-N-(quinoxalin-5-yl)thiophene-2-carboxamide] | A (A represents an increase in SERCA Vmax greater than or equal to 50%) | ≥ 50% | 1 to 10 µM | ≥ 50% | 10 to 20% |
| O=C(Nc1cccc2nccnc12)c1ccc(Br)s1 [A3, 5-Bromo-N-(quinoxalin-5-yl)thiophene-2-carboxamide] | A (A represents an increase in SERCA Vmax greater than or equal to 50%) | 20 to 50% | 10 to 20 µM | 10 to 20% | 10 to 20% |
| CC(C)Oc1cccc(C(=O)Nc2cccc3nccnc23)c1 [A8, 3-Isopropoxy-N-(quinoxalin-5-yl)benzamide] | B (B represents a value greater than 10% and less than 50%) | 20 to 50% | 10 to 20 µM | 20 to 50% | 21 to 30% |
| O=C(Nc1cccc2nccnc12)c1cccs1 [A5, N-(Quinoxalin-5-yl)thiophene-2-carboxamide] | A (A represents an increase in SERCA Vmax greater than or equal to 50%) | 20 to 50% | 10 to 20 µM | 10 to 20% | > 30% |
| O=C(Nc1cccc2nccnc12)c1cc(Br)cs1 [A2, 4-Bromo-N-(quinoxalin-5-yl)thiophene-2-carboxamide] | B (B represents a value greater than 10% and less than 50%) | 10 to 20% | 1 to 10 µM | 20 to 50% | 21 to 30% |
| CC(C)Oc1ccc(C(=O)Nc2cccc3nccnc23)cc1 [A1, 4-Isopropoxy-N-(quinoxalin-5-yl)benzamide] | A (A represents an increase in SERCA Vmax greater than or equal to 50%) | ≥ 50% | 1 to 10 µM | 20 to 50% | 21 to 30% |
| O=C(Nc1cccc2nccnc12)c1cc2ccccc2s1 [A6, N-(Quinoxalin-5-yl)benzo[b]thiophene-2-carboxamide] | B (B represents a value greater than 10% and less than 50%) | 20 to 50% | 1 to 10 µM | 10 to 20% | 10 to 20% |
| O=C(Nc1cccc2nccnc12)c1cccc(F)c1 [A10, 3-fluoro-N-(quinoxalin-5-yl)benzamide] | A (A represents an increase in SERCA Vmax greater than or equal to 50%) | 20 to 50% | 1 to 10 µM | 10 to 20% | > 30% |
| O=C(Nc1cccc2nccnc12)c1ccc(Cl)cc1 [A7, 4-Chloro-N-(quinoxalin-5-yl)benzamide] | B (B represents a value greater than 10% and less than 50%) | 20 to 50% | ≤ 1 µM | ≥ 50% | 10 to 20% |
| O=C(Nc1cccc2nccnc12)c1ccc(C(F)(F)F)cc1 [A9, N-(quinoxalin-5-yl)-4-(trifluoromethyl)benzamide] | A (A represents an increase in SERCA Vmax greater than or equal to 50%) | 10 to 20% | ≤ 1 µM | 20 to 50% | 21 to 30% |
